# Reference: patent US12168008B2, “Oxabicycloheptanes for modulation of immune response” (LIXTE BIOTECHNOLOGY, INC., priority 2016, dated 2024)
# Tests used:
# CT26 tumor = assay: CT26 syngeneic tumor model: tumor growth and survival; type: in vivo, mouse
# Experimental: To test the hypothesis that inhibition of PP2A with LB-100 can enhance immune-mediated antitumor responses, rice were implanted with CT26 tumor cells. CT26 is a murine colon adenocarcinoma expressing low level of PD-L1 and is resistant to anti-PD1 therapy. After about 13 days, mice with tumor size between 30-100 mm^3 were randomized into four treatment groups (PBS control, LB-100 only—0.16 mg/kg, anti-PD-1 only—10 mg/kg, or a combination of both). Treatment was given every 2 days for a total of 28 days. Tumor size was assessed every two days (FIGS. 20A-C). Single agent treatment with anti-PD1 was ineffective in reducing tumor burden or increasing survival. LB-100 alone was able to increase median survival from 21 to 33 days (p=0.02). […]
# Tumor Inoculation and Animal Studies—CT26 tumor cells (0.5×10^6) were injected subcutaneously in the right side of the abdomen. […] Tumor size were monitored with a digital caliper every 2-3 d and expressed as volume (length×width^2×0.5). […]
# LB-100 and aPD-1 combination treatment synergistically elicit rejection of CT26 tumors: To test the hypothesis that PP2A inhibition synergizes with aPD-1 therapy in vivo in aPD-1 refractory tumors, a CT26 tumor was used, which is a murine colorectal carcinoma with high PD-L1 expression but limited response to aPD-1 therapy. […] Tumor growth was assessed every 2 days (FIG. 24A). […]
# CD8+ or CD4+ T cells = assay: Human allogeneic mixed lymphocyte reaction, T cells with monocyte-derived dendritic cells (Example 8); type: cell-based
# Experimental: The effect of LB-100 on T-cells was assessed in human allogeneic mixed lymphocyte reactions, in which CD8+ or CD4+ T cells were co-cultured with […] monocyte-derived dendritic cells. […] The effect of LB-100 plus anti-PD-1 antibody was investigated on CD4+ T cells in the same assay.
# CD4/8 effector cells = assay: T cell subsets in naive mice (FIG. 13-14); type: in vivo, mouse
# Experimental: FIG. 13A. […] Low dose of LB treatment in vivo induced more CD8 (left) and CD4 (right) effector T cells in lymph node. 5 mice per group. Control—PBS, Low dose—0.16 mg/kg, Medium dose—0.32 mg/kg.
structure (smiles),measurement,setting,value
CN1CCN(C(=O)C2C(C(=O)O)[C@H]3CC[C@@H]2O3)CC1 (stereo partly shown) [LB-100],median survival,"CT26 tumor; control 21 days, treatment every 2 days",33 days
same,"tumor growth, single agent","CT26 tumor; mouse, in vivo",did not significantly decrease tumor growth
same,IFNγ secretion in CD4+ T cells,CD8+ or CD4+ T cells,increase
same,T cell proliferation in CD8+ and CD4+ cells,CD8+ or CD4+ T cells,dose dependent increase
same,Tbet in CD4+ T cells,CD8+ or CD4+ T cells,dose dependent increase
same,co-stimulatory molecule OX40 expression on T cells,CD8+ or CD4+ T cells,dose dependent increase
same,PD-1 expression on human CD4 T cells,CD8+ or CD4+ T cells; co-cultured with monocytes derived DC,reduced PD-1 expression
same,PD-1 expressing CD8+ T cells in blood,CD4/8 effector cells; low dose,reduced PD-1 expressing CD8+ T cells in blood
same,CD4/8 effector cells in lymph node of naïve mice,CD4/8 effector cells; low dose 0.16 mg/kg,increased CD4/8 effector cells
same,PD-1 expressing CD8+ T cells in spleen,CD4/8 effector cells; medium dose,reduced PD-1 expressing CD8+ T cells in spleen
